{
  "source": "paper PMC7961996",
  "about": "“Small Immunomodulatory Molecules as Potential Therapeutics in Experimental Murine Models of Acute Lung Injury (ALI)/Acute Respiratory Distress Syndrome (ARDS)” (International Journal of Molecular Sciences, 2021)",
  "origin": "cited, not measured here",
  "key": {"[1]": {"system": "murine macrophages and human peripheral blood monocytes-hPBMC", "parameters": "method as in PMID 22654663", "conditions": "in vitro; cited from earlier work"}, "endotoxemia": {"system": "endotoxemia", "parameters": "method as in PMID 22654663", "conditions": "in vivo; cited from earlier work"}},
  "data": [
    {"substance": "chitohexaose", "values": [
      {"measurement": "LPS-induced inflammatory mediators such as TNF-α and IL-6", "setting": "[1]", "result": "blocks lipopolysaccharide (LPS)-induced inflammatory mediators"},
      {"measurement": "endotoxemia", "setting": "endotoxemia", "result": "reduces endotoxemia"}
    ]}
  ]
}
